Test results reported in patent US20230174523A1, “BENZENESULFONAMIDE DERIVATIVES AS TRAP1 MODULATORS AND USES THEREOF” (Amathus Therapeutics, Inc., priority 2020, published 2023).
pEC50: −log10 of the molar value.

Target: T1, TRAP1 enzyme (Homo sapiens, UniProt Q12931)
T1 sequence (Q12931 60-704): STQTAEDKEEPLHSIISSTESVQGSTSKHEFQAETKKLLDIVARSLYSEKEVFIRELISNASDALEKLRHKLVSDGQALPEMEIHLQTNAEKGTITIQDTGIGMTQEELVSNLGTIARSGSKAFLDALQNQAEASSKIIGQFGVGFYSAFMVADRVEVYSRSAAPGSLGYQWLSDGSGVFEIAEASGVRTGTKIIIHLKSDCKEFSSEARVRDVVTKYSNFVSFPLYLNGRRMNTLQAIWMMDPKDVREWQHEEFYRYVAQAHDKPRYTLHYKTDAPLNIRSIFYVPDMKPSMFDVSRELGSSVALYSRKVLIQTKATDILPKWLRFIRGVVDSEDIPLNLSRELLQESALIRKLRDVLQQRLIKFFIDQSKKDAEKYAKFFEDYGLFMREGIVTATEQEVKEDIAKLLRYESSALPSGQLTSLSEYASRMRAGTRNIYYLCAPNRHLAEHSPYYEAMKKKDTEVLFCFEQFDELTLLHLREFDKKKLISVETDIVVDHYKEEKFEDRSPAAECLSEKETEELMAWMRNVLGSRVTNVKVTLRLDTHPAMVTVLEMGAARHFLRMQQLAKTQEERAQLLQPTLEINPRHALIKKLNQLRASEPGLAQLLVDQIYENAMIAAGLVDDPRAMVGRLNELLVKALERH
Experiment: Malachite green phosphate assay of TRAP1 ATPase activity
Type: biochemical
Settings: for pEC50: TRAP1 ATPase activation, 150 nM Trap1, 20 μM ATP, geometric mean, read-out: Malachite Green Fluor DRC: GeoMean EC50; for Emax: read-out: Malachite Green Fluor DRC: Mean Emax
Procedure: The Potency of test compounds to modulate the ATPase activity of TRAP1 enzyme was evaluated using malachite green phosphatase assay. The assay is based on quantification of the green complex formed between Malachite Green, molybdate and inorganic phosphate generated in the phosphatase reaction. Assays were performed using a Malachite Green assay kit. All the assays were carried out in a 96-well transparent plate. The buffer used was 50 mM HEPES (pH 7.5), 20 mM KCl, 4 mM MgCl2 and 0.05% BSA. 150 nM Trap1 enzyme was incubated with various concentrations of the test compound (0.78 μM-100 μM) at 37° C. for 30 mins. 20 μM ATP was added to each well (except blank wells) to start the reaction and the plate was then incubated at 37° C. for 180 mins. 10 μl of the reaction volume of each sample was then transferred to a white 384-well proxiplate in quadruplets. 2.5 μl of Malachite Green reagent was added to all the wells and the plate was equilibrated for 15 mins. The reaction was stopped by adding 12% H2SO4 and the plate was read for fluorescence at 620 nm (λex=573 nm). The amount of phosphate released was estimated from a phosphate standard curve generated at the same experimental conditions. Emax (Maximal percent activation) and EC50 (concentration of test compound for half maximal activation) were estimated by fitting the dose response data to a sigmoidal curve fitting equation using Graphpad Prism software V.7.0.

Row | pEC50 | Emax [%] | SMILES
1 | 4.00 to 4.70 | 200 to 300 | COc1ccc(NC(=O)c2nccs2)cc1S(=O)(=O)Nc1ccc(Cl)cc1 [Compound 349]
2 | 4.00 to 4.70 | 200 to 300 | COc1ccc(NC(=O)c2cnc(C(F)(F)F)[nH]2)cc1S(=O)(=O)Nc1ccc(-c2ccccc2)cc1 [Compound 353]
3 | 4.00 to 4.70 | 200 to 300 | NCCCCCCOc1ccc(NC(=O)c2cnc[nH]2)cc1S(=O)(=O)Nc1ccc(Br)cc1 [Compound 356, N-(4-((6-aminohexyl)oxy)-3-(N-(4-bromophenyl)sulfamoyl)phenyl)-1H-imidazole-4-carboxamide]
4 | 4.00 to 4.70 | 200 to 300 | COc1ccc(NC(=O)c2cnc(C(F)(F)F)[nH]2)cc1S(=O)(=O)Nc1ccc(C(C)(C)C)cc1 [Compound 360]
5 | > 5.00 | > 300 | CN(c1ccc(Br)cc1)S(=O)(=O)c1cc(NC(=O)c2cnc[nH]2)ccc1OCCCCCC[P+](c1ccccc1)(c1ccccc1)c1ccccc1 [Compound 363]
6 | 4.00 to 4.70 | 160 to 199 | COc1ccc(NC(=O)c2cn(C)c(C(F)(F)F)n2)cc1S(=O)(=O)Nc1ccc(Br)cc1 [Compound 364]
7 | 4.00 to 4.70 | 200 to 300 | O=C(Nc1cccc(S(=O)(=O)N2CCOc3cc(Cl)ccc32)c1)c1ncco1 [Compound 367]
8 | 4.00 to 4.70 | 200 to 300 | COc1ccc(NC(=O)c2cnc(C(F)(F)F)[nH]2)cc1S(=O)(=O)Nc1cccc(C(C)(C)C)c1 [Compound 368]
9 | > 5.00 | 160 to 199 | COc1ccc(NC(=O)c2ncc(-c3ccccc3)o2)cc1S(=O)(=O)Nc1ccc(Cl)cc1 [Compound 369]
10 | 4.00 to 4.70 | 200 to 300 | COc1ccc(NC(=O)c2nc(C(F)(F)F)cs2)cc1S(=O)(=O)Nc1ccc(Br)cc1 [Compound 370, N-(3-(N-(4-bromophenyl)sulfamoyl)-4-methoxyphenyl)-4-(trifluoromethyl) thiazole-2-carboxamide]
11 | 4.00 to 4.70 | 160 to 199 | O=C(Nc1cccc(S(=O)(=O)N2CCOc3ccccc32)c1)c1ncco1 [Compound 372]
12 | 4.00 to 4.70 | 160 to 199 | O=C(Nc1cccc(S(=O)(=O)N2CCOc3cc(F)ccc32)c1)c1ncco1 [Compound 377]
13 | > 5.00 | 160 to 199 | COc1ccc(NC(=O)c2cnc(-c3ccccc3)[nH]2)cc1S(=O)(=O)Nc1ccc(N=[N+]=[N-])cc1 [Compound 380, N-(3-(N-(4-azidophenyl)sulfamoyl)-4-methoxyphenyl)-2-phenyl-1H-imidazole-5-carboxamide]
14 | 4.00 to 4.70 | 123 to 159 | COc1ccc(NC(=O)c2cnc[nH]2)cc1S(=O)(=O)Nc1ccc(C(C2N=N2)C(F)(F)F)cc1 (stereo not shown) [Compound 398]
15 | > 5.00 | 160 to 199 | COc1ccc(NC(=O)c2cnc(-c3ccccc3)[nH]2)cc1S(=O)(=O)Nc1ccc(Cl)cc1 [Compound 404]
16 | 4.00 to 4.70 | 200 to 300 | Cc1ccc2c(c1)CCN2S(=O)(=O)c1cccc(NC(=O)c2ocnc2C)c1 [Compound 407]
17 | > 5.00 | 123 to 159 | COc1ccc(NC(=O)c2cnc(-c3ccc(Cl)cc3)[nH]2)cc1S(=O)(=O)Nc1ccc(Br)cc1 [Compound 415]
18 | > 5.00 | 123 to 159 | COc1ccc(-c2ncc(C(=O)Nc3ccc(OC)c(S(=O)(=O)Nc4ccc(Br)cc4)c3)[nH]2)cc1 [Compound 417]
19 | > 5.00 | 160 to 199 | COc1ccc(NC(=O)c2ncc(-c3ccccc3)o2)cc1S(=O)(=O)Nc1c(C)cccc1C [Compound 423]
20 | > 5.00 | 123 to 159 | COc1ccc(NC(=O)c2nnc(-c3ccccc3)o2)cc1S(=O)(=O)Nc1ccc(Cl)cc1 [Compound 424]
21 | 4.70 to 5.00 | 200 to 300 | Cc1ncoc1C(=O)Nc1cccc(S(=O)(=O)N2CCCc3cc(Cl)ccc32)c1 [Compound 429]
22 | 4.00 to 4.70 | 200 to 300 | COc1ccc(NC(=O)c2cnc(C(F)(F)F)[nH]2)cc1S(=O)(=O)N(CCCCN1CCOCC1)c1ccc(Br)cc1 [Compound 430, N-(3-(N-(4-bromophenyl)-N-(4-morpholinobutyl)sulfamoyl)-4-methoxyphenyl)-2-(trifluoromethyl)-1H-imidazole-5-carboxamide]

Row | pEC50 | Emax [%] | SMILES
23 | 4.00 to 4.70 | > 300 | COc1ccc(NC(=O)c2cnc(C(F)(F)F)[nH]2)cc1S(=O)(=O)N(CCCCCO)c1ccc(Br)cc1 [Compound 431, N-(3-(N-(4-bromophenyl)-N-(5-hydroxypentyl)sulfamoyl)-4-methoxyphenyl)-2-(trifluoromethyl)-1H-imidazole-5-carboxamide]
24 | 4.70 to 5.00 | 123 to 159 | COc1ccc(NC(=O)c2cnc(C(F)(F)F)[nH]2)cc1S(=O)(=O)N(CCCCCN1CCOCC1)c1ccc(Br)cc1 [Compound 433]
25 | > 5.00 | 160 to 199 | Cc1cccc(C)c1NS(=O)(=O)c1cc(NC(=O)c2cnc(-c3ccccc3)[nH]2)ccc1F [Compound 436]
26 | 4.00 to 4.70 | 160 to 199 | COc1ccc(NC(=O)c2cnc(C(F)(F)F)[nH]2)cc1S(=O)(=O)N(CCCCN1CCCC1)c1ccc(Br)cc1 [Compound 437]
27 | 4.00 to 4.70 | 160 to 199 | COc1ccc(NC(=O)c2cnc(C(F)(F)F)[nH]2)cc1S(=O)(=O)N(CCCCCN1CCCC1)c1ccc(Br)cc1 [Compound 439]
28 | 4.70 to 5.00 | 123 to 159 | COc1ccc(NC(=O)c2ncc(-c3ccccc3)s2)cc1S(=O)(=O)Nc1c(C)cccc1C [Compound 449]
29 | > 5.00 | 123 to 159 | COc1ccc(NC(=O)c2ncc(-c3ccccc3)o2)cc1S(=O)(=O)Nc1c(Cl)cccc1Cl [Compound 451]
30 | > 5.00 | 160 to 199 | COc1ccc(NC(=O)c2nnc(-c3ccccc3)o2)cc1S(=O)(=O)Nc1c(Cl)cccc1Cl [Compound 469]
31 | > 5.00 | 200 to 300 | COc1ccc(NC(=O)c2cnc(-c3ccccc3)o2)cc1S(=O)(=O)Nc1c(C)cccc1C [Compound 470]
32 | 4.00 to 4.70 | 160 to 199 | COc1ccc(NC(=O)c2cnccc2C)cc1S(=O)(=O)Nc1c(C)cccc1C [Compound 471]
33 | > 5.00 | 160 to 199 | O=C(Nc1cccc(S(=O)(=O)N2CCOc3cc(Cl)ccc32)c1)c1ncc(-c2ccccc2)o1 [Compound 477]
34 | 4.70 to 5.00 | 160 to 199 | Cc1ncoc1C(=O)Nc1cccc(S(=O)(=O)N2CCOc3cc(Cl)ccc32)c1 [Compound 479]
35 | 4.70 to 5.00 | 160 to 199 | COc1ccc(NC(=O)c2csc(-c3ccccc3)n2)cc1S(=O)(=O)Nc1ccc(Cl)cc1 [Compound 487]
36 | 4.70 to 5.00 | 200 to 300 | COc1ccc(NC(=O)c2oc(-c3ccccc3)nc2C)cc1S(=O)(=O)Nc1ccc(Cl)cc1 [Compound 488]
37 | 4.00 to 4.70 | 160 to 199 | COc1ccc(NC(=O)c2cnccc2C(C)C)cc1S(=O)(=O)Nc1ccc(Br)cc1 [Compound 493]
38 | 4.00 to 4.70 | 160 to 199 | COc1ccc(NC(=O)c2cnccc2C(C)C)cc1S(=O)(=O)Nc1ccc(Cl)cc1 [Compound 496]
39 | 4.00 to 4.70 | 160 to 199 | COc1ccc(NC(=O)c2ccc(-c3ccccc3)o2)cc1S(=O)(=O)Nc1ccc(Cl)cc1 [Compound 499]
40 | 4.70 to 5.00 | 200 to 300 | COc1ccc(NC(=O)c2nnc(-c3ccccc3)s2)cc1S(=O)(=O)Nc1ccc(Cl)cc1 [Compound 500]
41 | > 5.00 | 123 to 159 | O=C(Nc1ccc(F)c(S(=O)(=O)Nc2c(F)cc(Cl)cc2F)c1)c1ncc(-c2ccccc2)o1 [Compound 503]
42 | 4.70 to 5.00 | 160 to 199 | Cc1ncoc1C(=O)Nc1cccc(S(=O)(=O)N2CCC(C)(C)c3cc(Cl)ccc32)c1 [Compound 517]
43 | 4.00 to 4.70 | > 300 | COc1ccc(NC(=O)c2cnc(-c3ccccc3)[nH]2)cc1S(=O)(=O)N(CCOCCOCCOCCN)c1ccc(Br)cc1 [Compound 526, N-(3-(N-(2-(2-(2-(2-aminoethoxy)ethoxy)ethoxy)ethyl)-N-(4-bromophenyl)sulfamoyl)-4-methoxyphenyl)-2-phenyl-1H-imidazole-5-carboxamide]
44 | 4.00 to 4.70 | 200 to 300 | CC1(C)CCN(S(=O)(=O)c2cccc(NC(=O)c3cnc(-c4ccccc4)[nH]3)c2)c2ccc(Cl)cc21 [Compound 534]
